Data from US7897638B2, “Synthesis of nitrodibenzylfuran chromophore for photodeprotection of organic molecules” (Philadelphia Health & Education Corporation, priority 2005, dated 2011).
Like-named read-outs stand apart in the source and are kept apart here.

Legend:
[1] = widely used, commercially available caged compounds; cited from earlier work
[2] = Two-photon photolysis; assay type: physicochemical
Description: Two-photon photolysis (2PP) of a solution contains MNI-glutamate (1.4 mM) and NDBF-EGTA (0.1 mM), by raster scanning the solution (256 pulses, 4 ms each, 300 mW).

[3] = known standard; cited from earlier work
[4] = Quantum yield of photolysis by comparison with MNI-glutamate, HPLC; assay type: physicochemical; details: photolyzed at 350 nm, relative to MNI-glutamate; listed as NDBF Calcium
From the text: Inventors measured the quantum yield of photolysis of NDBF-EGTA by comparison with a known standard, 4-methoxy-7-nitroindolinyl(MNI)-glutamate (Matsuzaki, et al., 1999). A solution containing NDBF-EGTA and MNI-glutamate was photolyzed at 350 nm, in order to determine the relative % photolysis of the two caged compounds. The concentrations of the two compounds were set so that their chromophores would absorb the same amount of light (MNI/NDBF ratio 3.7:1), and so that the total optical density was 0.4. Under these conditions the same number of excited states are created simultaneously for both cages, making determination of the quantum for NBDF-EGTA more reliable. As a control, both cages were photolyzed separately to check that there was no interference from simultaneous photolysis. Inosine was also included in the photolysis reaction mixture, as a photochemically inert standard. MNI-glutamate has a quantum yield of photolysis of 0.085. […] Saturating [Ca] had no effect on this value.

[5] = Photochemical properties of caged compounds (Table 1); assay type: physicochemical; details: for ε/M^−1 cm^−1 (extinction coefficient): NDBF chromophore; for ε · φ (efficiency of use of the incident light): product of extinction coefficient and quantum yield
From the text: The extinction coefficient (ε) and the quantum yield (φ) are the two photochemical properties that define the efficiency of a chromophore. The former is an absolute value of a chromophore; the latter depends upon the exact nature of the photolyzed bond, as well as the chromophore itself. The four most widely used caged compounds (ATP, IP3, glutamate, Ca) with the ortho-nitrobenzyl chromophore have ε and φ in the range of 430-970 and 0.14-0.63. The product (ε·φ) for each caged compound defines the efficiency of use of the incident light.

Molecule | Rate/s^−1 (rate of release) [1] | φ (quantum yield) [1] | 2-photon cross-section [2] | quantum yield of photolysis [3] | φ (quantum yield of photolysis) [4] | ε/M^−1 cm^−1 (extinction coefficient) [5] | Rate/s^−1 (rate of release) ([5]; NDBF-caged calcium) | ε · φ (efficiency of use of the incident light) [5]
COc1cc(COP(=O)(O)OP(=O)(O)OP(=O)(O)OCC2OC(n3cnc4c(N)ncnc43)C(O)C2O)c([N+](=O)[O-])cc1OC (centres unmarked) [DMNB ATP] | 18 s⁻¹ | 0.07 |  |  |  |  |  | 
COc1cc(COP2(=O)OCC3OC(n4cnc5c(N)ncnc54)C(O)C3O2)c([N+](=O)[O-])cc1OC (centres unmarked) [DMNB cAMP] | 300 s⁻¹ | 0.05 |  |  |  |  |  | 
COc1ccc([N+](=O)[O-])c2c1CCN2C(=O)CC[C@H](N)C(=O)O [MNI-glutamate, 4-methoxy-7-nitroindolinyl(MNI)-glutamate, reference compound] |  |  | 0.06 GM | 0.085 |  |  |  | 
NDBF-EGTA |  |  | 0.3-0.6 GM |  | 0.6 | 18,400 M^−1 cm^−1 | 25,000 s^−1 | 11,000
nitrodibenzylfuran [NDBF] |  |  | at least 0.3 GM |  |  | 18,400 M^−1 cm^−1 |  | above 10,000
